Source: patent publication US11467160B2, “Method of therapy selection for patient suffering from glioblastoma” (INSERM (Institut National de la Santé et de la Recherche …, priority 2017, dated 2022)
Entries after “also recorded” stand apart in the source; their conditions may differ.

Legend:
GBM patients [1] = details: combined with temozolomide (Stupp 2014); cited from earlier work
[2] = system: CD90-expressing parental U251 cells; experiment: Boyden chamber migration assay, parental U251 cells; type: cell-based, human; details: for U251 cell migration: 10 μM inhibitor, 15 minutes pre-incubation, kept during 24-hours Boyden chamber assay
Experimental: (§1) FIG. 3: CD90 signals through SRC, FAK and RhoA molecules and CD90 dependent migration is blocked by dasatinib in vitro and in vivo. Parental (wt), control (shCTR #), CD90-down expressing (shCD90 #, n=3) U251 cells; as well as parental (wt), control (CTR #) and CD90 expressing (CD90 #, n=3) U87 cells were cultured at low cell density, lysed and analyzed by Western-blot for phosphoSRC, SRC, phosphoFAK, FAK and β-actin expression. Protein phosphorylation levels were calculated as described in Materials and Methods part (A). CD90low (black) and CD90high (blank) RNS (n=12, square symbol) and RADH (n=6, circle symbol) cells were analyzed by Western-blot for phosphoSRC, SRC, phosphoFAK, FAK and β-actin expression. Protein phosphorylation levels were calculated in (B). CD90-expressing parental U251 and CD90 #1 U87 cells were tested in a 24-hours Boyden chamber migration assay as described in FIG. 2 in the presence of DMSO (as control), PP2, dasatinib (both SRC inhibitors), Y15 (FAK inhibitor) and Y-27632 (ROCK inhibitor) (C). CD90-expressing parental U251 and CD90 #1 U87 cells were transfected without (siØ), with siRNA GL2 (control) or siRNA RhoA during 48 hours, and tested in a 24-hours Boyden chamber migration assay (D). RhoA expression was tested by Western-blot (D). Migration was given by the number of migrated cells obtained per field (C and D). CD90high RNS (n=4, square symbol) and RADH (n=4, circle symbol) cells were tested in a 24-hours Boyden chamber migration assay in the presence of DMSO or dasatinib (E). Representative fields are shown in (E). CD90 expressing U87 cells were orthotopically implanted in immunocompromised mice brain. One week after injection, mice were fed with control vehicle (n=7) or dasatinib (40 mg/kg/day, n=7) for 20 days. Control and dasatinib-treated mice were sacrificed 28 days after injection. Brains were collected and sections were analyzed after H&E staining (F). (*): p<0.05; (**): p<0.01; (***): p<0.001.
Boyden chamber migration assay—Parental, controls and transfected U251 and U87 cell lines were washed in DMEM, placed in Boyden chambers (10^5 cells/chamber in DMEM) that were placed in DMEM 20% FBS and incubated at 37° C. for 24 hours. After 24 hours, Boyden chambers were washed in PBS and cells were fixed in PBS 0.5% paraformaldehyde. Non-migrated cells inside the chambers were removed and cells were then stained with Giemsa (RAL Diagnostics, Martillac, France). After washes in PBS, pictures of 5 different fields were taken. Migration was given by the mean of number of migrated cells observed per field. […]

U87 CD90 cells [3] = experiment: Boyden chamber migration assay, U87 CD90 cells; type: cell-based, human; details: for U87 CD90 cell migration: 10 μM inhibitor, 15 minutes pre-incubation, kept during 24-hours Boyden chamber assay
Experimental: as §1
Preparation of CD90 knocked-down U251 and CD90 expressing U87 GBM cell lines—U251 cells were transfected with pLKO.1-puro plasmids containing shRNA constructs targeting CD90 mRNA and targeting non-mammalian mRNA (Sigma-Aldrich) using the Lipofectamine 2000 reagent (Life Technologies, St Aubin, France) according to the manufactor's instructions. After one week of culture under the selective antibiotic puromycin used at 10 μg/ml, transfected U251 cells were amplified and then cloned in 96-well plates at 0.1 cell/well. CD90 knocked-down U251 cell lines were expanded and selected for their decreased expression of CD90. U87 cells were transfected with CD90 cDNA (GeneWiz, Sigma-Aldrich) cloned into the pLKO.1-puro plasmid with EcoRI and BamHI enzymes using the Lipofectamine 2000 reagent. […]

[4] = system: primary CD90high GBM lines; experiment: Boyden chamber migration assay, primary CD90high GBM lines (RNS and RADH); type: cell-based, human; details: CD90high RNS (n=4) and RADH (n=4) cells, 24-hours Boyden chamber assay
Experimental: FIG. 3: CD90 signals through SRC, FAK and RhoA molecules and CD90 dependent migration is blocked by dasatinib in vitro and in vivo. Parental (wt), control (shCTR #), CD90-down expressing (shCD90 #, n=3) U251 cells; as well as parental (wt), control (CTR #) and CD90 expressing (CD90 #, n=3) U87 cells were cultured at low cell density, lysed and analyzed by Western-blot for phosphoSRC, SRC, phosphoFAK, FAK and β-actin expression. Protein phosphorylation levels were calculated as described in Materials and Methods part (A). CD90low (black) and CD90high (blank) RNS (n=12, square symbol) and RADH (n=6, circle symbol) cells were analyzed by Western-blot for phosphoSRC, SRC, phosphoFAK, FAK and β-actin expression. Protein phosphorylation levels were calculated in (B). […] Brains were collected and sections were analyzed after H&E staining (F). […]
Tumor specimens and cell culture—GBM samples were obtained after informed consent from patients admitted to the neurosurgery department at Rennes University Hospital for surgical resection in accordance with the local ethic committee. […] The extent of surgery was evaluated with an enhanced magnetic resonance imaging (MRI) performed within 24 hours after the resection. […]

U87 CD90 cells [5] = experiment: Orthotopic xenograft mouse model with U87 CD90 cells; type: in vivo, mice
Experimental: as §1, with “CD90high RNS (n=4, square symbol) and RADH (n=4, circle symbol) cells were tested in a 24-hours Boyden chamber migration assay in the presence of DMSO or dasatinib (E). Representative fields are shown in (E). CD90 expressing U87 cells were orthotopically implanted in immunocompromised mice brain. One week after injection, mice were fed with control vehicle (n=7) or dasatinib (40 mg/kg/day, n=7) for 20 days. Control and dasatinib-treated mice were sacrificed 28 days after injection.” left out, “(*): p<0.05; (**): p<0.01; (***): p<0.001.” left out
Orthotopic mouse model—Eight-weeks old male Balb/c NOD-SCID mice (Janvier, Saint Berthevin, France) were housed in an animal care unit authorized by the French Ministries of Agriculture and Research (Biosit, Rennes, France—Agreement No. B35-238-40). […] Mice were daily clinically monitored and sacrificed 28 days after implantation. […] Tumor burden was compared in the different groups of mice and analyzed using ImageJ software. […]
To evaluate the CD90-dependent effects of dasatinib in vivo, U87 CD90 cells were used in an orthotopic xenograft mouse model. […] Mice were analyzed using MRI 28 days post-injection and were sacrificed. […]

CD90high RNS cells = experiment: Viability of CD90high RNS cells; type: cell-based, human
[6] = system: bevacizumab-treated recurrent GBM patients; details: phase II trial (Lassman 2015); cited from earlier work
glioma cell invasion = details: preclinical phase; cited from earlier work
recurrent GBM patients = details: Phase II, with temozolomide (Groves 2002); cited from earlier work
GBM patients [7] = details: phase III clinical trial (Levin 2006); cited from earlier work
[8] = 1 μM, 24-hours Boyden chamber assay
[9] = dasatinib 40 mg/kg fed daily for 20 days from one week post-implantation, 28 days post-injection

For `CC(C)[C@H]1C(=O)N[C@@H](CCCN=C(N)N)C(=O)NCC(=O)N[C@@H](CC(=O)O)C(=O)N[C@H](Cc2ccccc2)C(=O)N1C` [Cilengitide], the “Effects on GBM patients” value (GBM patients [1]) is listed as “limited effects”.

With `CC(C)(C)n1nc(-c2ccc(Cl)cc2)c2c(N)ncnc21` [PP2] the U251 cell migration [2] was “dramatically reduced” and the “U87 CD90 cell migration” value (U87 CD90 cells [3]) was “dramatically reduced”.

With `Cl.Cl.Cl.Cl.Nc1cc(N)c(N)cc1N` [Y15] the “Effect on the migration of U251 cells” value [2, 8] was “no or limited effect” and the “Effect on the migration of U87 CD90 cells” value (U87 CD90 cells [3]; [8]) was “no or limited effect”.

In the case of `C[C@@H](N)[C@H]1CC[C@H](C(=O)Nc2ccncc2)CC1` [Y27632], the inhibition at 10 µM ([2]; Homo sapiens, U-251, U251 cells, 10 μM, 24-hours Boyden chamber assay, read-out: Migration inhibition (reduction)) is reported as 53% and the inhibition at 10 µM (U87 CD90 cells [3]; Homo sapiens, U87 CD90 cells, 10 μM, 24-hours Boyden chamber assay, read-out: Migration inhibition (reduction)) is reported as 76%.

In the case of `Cc1nc(Nc2ncc(C(=O)Nc3c(C)cccc3Cl)s2)cc(N2CCN(CCO)CC2)n1` [dasatinib, N-(2-chloro-6-methylphenyl)-2-[[6-[4-(2-hydroxyethyl)piperazin-1-yl]-2-methylpyrimidin-4-yl]amino]-1,3-thiazole-5-carboxamide], the U251 cell migration [2] is reported as “dramatically reduced”, the “U87 CD90 cell migration” value (U87 CD90 cells [3]) is reported as “dramatically reduced” and the “Migration of primary CD90high GBM lines” value [4] is reported as “dramatically reduced”. For the same compound, the “CD90 tumor migration/invasion properties in vivo” value (U87 CD90 cells [5]; U87 CD90 orthotopic xenograft, dasatinib 40 mg/kg) was “dramatically reduces; also recorded: blocks; also recorded: inhibits”, the “Mice with clear encapsulated tumors with regular edges, H&E staining” value (U87 CD90 cells [5]; [9]) was 4 out of 7 and the “Mice with clear encapsulated tumors with regular edges, MRI” value (U87 CD90 cells [5]; [9]) was 3 out of 4. The “Viability of CD90high RNS cells” value (CD90high RNS cells) was “affects viability”, the “Improvement of bevacizumab-treated recurrent GBM patients” value [6] was “failed to improve” and the “Inhibiting bevacizumab-induced glioma cell invasion” value (glioma cell invasion) was “promising effect”.

For `CNC(=O)[C@@H](NC(=O)[C@H](CC(C)C)[C@H](O)C(=O)NO)C(C)(C)C` [marimastat], the “Effects on recurrent GBM patients” value (recurrent GBM patients) is given as “encouraging effects” and the Patient survival (GBM patients [7]) is given as “failed to improve”.
